Measured values from US7550484B2, “Chemokine receptor binding heterocyclic compounds with enhanced efficacy” (Genzyme Corporation, priority 2003, dated 2009).
Where “and” joins values, the source holds several entries; their conditions need not be identical. Equal entries are not always repeated. Where two headings read alike, the source gives them in different places.

Legend:
WBC counts = conditions: human, in vivo
[1] = test system: WBC count and circulating CD34+ progenitor/stem cells; conditions: single dose of 80 μg/kg, cited from earlier work
bone marrow stem cells = conditions: administered within hours after coronary ligation, with or without rhG-CSF
Protocol: Adult rats are anesthetized and a thoracotomy is performed. The descending branch of the left coronary artery is ligated and not reperfused. […] Control rats are not treated with the reagents. The animals are monitored at one-week intervals by echocardiography and MRI. The experiment is terminated at 2, 6 to 12 weeks post-surgery. On the day of sacrifice, the hemodynamic functions are analyzed for left ventricle-end diastolic pressure, left ventricle-developed pressure and the rate of rise and fall of left ventricle pressure. The heart is then arrested in diastole and perfused via the abdominal aorta to flush residual blood from the vascular network of the myocardium. This is followed by perfusion of the heart with 10% formalin. Several slices are made through the fixed heart and these are embedded in paraffin and sections. The sections are stained and analyzed by light microscopy to determine the size of the infarct in the treated and control animals. Tissue sections from hearts taken at 2 weeks after surgery are stained with antibodies specific for immature, developing myocyte and blood vessel proteins and analyzed by confocal microscopy. The immunohistochemical analysis involves the identification of transcription factors and surface markers expressed in early stages of myocyte development.

[2] = test system: granulocyte macrophage (CFU-GM), erythroid (BFU-E), and multipotential (CFU-GEMM) progenitor cells; conditions: for Absolute Number Progenitors Per ML Blood, BFU-E / Absolute Number Progenitors Per ML Blood, CFU-GEMM / Absolute Number Progenitors Per ML Blood, CFU-GM: 1 hour post administration; for Absolute Progenitors Per ML Blood, BFU-E / Absolute Progenitors Per ML Blood, CFU-GEMM / Absolute Progenitors Per ML Blood, CFU-GM: 5 mg/Kg single s.c.; for Absolute Progenitors Per ML Blood, BFU-E / Absolute Progenitors Per ML Blood, CFU-GEMM / Absolute Progenitors Per ML Blood, CFU-GM / Fold Change Compared to Time 0, progenitors BFU-E / Fold Change Compared to Time 0, progenitors CFU-GEMM / Fold Change Compared to Time 0, progenitors GM: methylcellulose culture
Protocol: Progenitors were stimulated to form colonies in vitro with the combination of 1 U/ml rhu Epo, 50 ng/ml rhu SLF, 5% Vol/Vol pokeweed mitogen mouse spleen cell conditioned medium (PWMSCM), and 0.1 mm hemin. Plates were scored 7 days after incubation.

[3] = test system: white blood cells, CD34 positive progenitor cells, CFU-GM, BFU-E, CFU-GEMM progenitor cells
Protocol: Five healthy human volunteers having initial white blood cell counts of 4,500-7,500 cells/mm^3 were used in the study. […] Blood samples were obtained via catheter prior to the dose, and at various times up to 24 hours after dosing.
The blood samples were evaluated for total white blood cells, CD34 positive progenitor cells (via FACS analysis) as a percentage of total white blood cells, as well as the absolute numbers per mL and cycling status of granulocyte macrophage (CFU-GM), erythroid (BFU-E), and multipotential (CFU-GEMM) progenitor cells.
All progenitor cell results are based on the scoring of 3 culture plates per assay per point.
For the progenitor cell numbers and cycling status, the numbers of CFU-GM, BFU-E and CFU-GEMM in methylcellulose cultures by stimulation of the cells with 1 Unit (U)/ml recombinant human (rhu) erythropoietin, 100 U/ml rhu granulocyte-macrophage colony stimulating factor (GM-CSF), 100 U/ml rhu interleukin-3 (IL-3) and 50 ng/ml rhu steel factor (SLF=stem cell factor (SCF)). The CFU-GM were also evaluated in agar cultures stimulated with 100 U/ml rhu GM-CSF and 50 ng/ml rhu SLF. For both types of assays, colonies were scored after 14 day incubation in a humidified atmosphere with 5% CO2 and lowered (5%) O2 tension. Cell cycling status of progenitors was measured using a high specific activity tritiated thymidine kill technique as previously described (Broxmeyer, H. E., et al., Exp. Hematol. (1989) 17:455-459).

c1cc(CN2CCCNCCNCCCNCC2)ccc1CN1CCCNCCNCCCNCC1 [AMD3100, 1,1′-[1,4-phenylenebis(methylene)]-bis-1,4,8,11-tetra-azacyclotetradecane]
Time until WBC counts returned to baseline after discontinuation of the infusion (WBC counts): 7 days | Peak increase in circulating CD34+ progenitor/stem cells ([1]; 6 hour time point): 6 fold | WBC count [1]: 17,000 /μl | Expected effect after induction of cardiac ischemia (bone marrow stem cells): mobilizes bone marrow stem cells rapidly | Absolute Number Progenitors Per ML Blood, BFU-E ([2]; 1 mg/kg single s.c.): 62 Per ML Blood | Absolute Number Progenitors Per ML Blood, CFU-GEMM ([2]; 1 mg/kg single s.c.): 27.1 Per ML Blood | Absolute Number Progenitors Per ML Blood, CFU-GM ([2]; 1 mg/kg single s.c.): 424 Per ML Blood | Absolute Number Progenitors Per ML Blood, BFU-E ([2]; 2.5 mg/kg single s.c.): 98.9 Per ML Blood | Absolute Number Progenitors Per ML Blood, CFU-GEMM ([2]; 2.5 mg/kg single s.c.): 70.6 Per ML Blood | Absolute Number Progenitors Per ML Blood, CFU-GM ([2]; 2.5 mg/kg single s.c.): 687.6 Per ML Blood | Absolute Progenitors Per ML Blood, BFU-E ([2]; 15″): 134.5 Per ML Blood | Absolute Progenitors Per ML Blood, CFU-GEMM ([2]; 15″): 90.4 Per ML Blood | Absolute Progenitors Per ML Blood, CFU-GM ([2]; 15″): 791.6 Per ML Blood | Absolute Progenitors Per ML Blood, BFU-E ([2]; 30″): 209.3 Per ML Blood | Absolute Progenitors Per ML Blood, CFU-GEMM ([2]; 30″): 113.5 Per ML Blood | Absolute Progenitors Per ML Blood, CFU-GM ([2]; 30″): 1805.5 Per ML Blood | Absolute Progenitors Per ML Blood, BFU-E ([2]; 120″): 102.3 Per ML Blood | Absolute Progenitors Per ML Blood, CFU-GEMM ([2]; 120″): 47.6 Per ML Blood | Absolute Progenitors Per ML Blood, CFU-GM ([2]; 120″): 828.7 Per ML Blood | Absolute Number Progenitors Per ML Blood, BFU-E ([2]; 5 mg/kg single s.c.): 92.8 Per ML Blood | Absolute Number Progenitors Per ML Blood, CFU-GEMM ([2]; 5 mg/kg single s.c.): 69.5 Per ML Blood | Absolute Number Progenitors Per ML Blood, CFU-GM ([2]; 5 mg/kg single s.c.): 608.4 Per ML Blood | Absolute Number Progenitors Per ML Blood, BFU-E ([2]; 10 mg/kg single s.c.): 120.5 Per ML Blood | Absolute Number Progenitors Per ML Blood, CFU-GEMM ([2]; 10 mg/kg single s.c.): 79.8 Per ML Blood | Absolute Number Progenitors Per ML Blood, CFU-GM ([2]; 10 mg/kg single s.c.): 825.6 Per ML Blood | Fold Change Compared to Time 0, progenitors BFU-E ([2]; Time 2′): 2.07 fold | Fold Change Compared to Time 0, progenitors CFU-GEMM ([2]; Time 2′): 1.85 fold | Fold Change Compared to Time 0, progenitors GM ([2]; Time 2′): 2.86 fold | Fold Change Compared to Time 0, progenitors BFU-E ([2]; Time 15″): 2.72 fold | Fold Change Compared to Time 0, progenitors CFU-GEMM ([2]; Time 15″): 3.51 fold | Fold Change Compared to Time 0, progenitors GM ([2]; Time 15″): 2.73 fold | Fold Change Compared to Time 0, progenitors BFU-E ([2]; Time 30″): 4.24 fold | Fold Change Compared to Time 0, progenitors CFU-GEMM ([2]; Time 30″): 4.41 fold | Fold Change Compared to Time 0, progenitors GM ([2]; Time 30″): 6.23 fold | Time of maximal elevation of white blood cell count and CD34 positive progenitor cells post-administration ([3]; 80 μg/kg single s.c.): 6 h | Mobilization of white blood cells in individual volunteers ([3]; 80 μg/kg single s.c., 2 Hr, volunteers P1-P5): 12.4 ×10^3 WBC's and 21.4 ×10^3 WBC's and 13.5 ×10^3 WBC's | % CHG, CFU-GEMM, methylcellulose culture ([3]; T = 1, average of 5 donors): 131.8% | % CHG, CFU-GM, agar culture ([3]; T = 1, average of 5 donors): 180.8% | % CHG, CFU-GM, methylcellulose culture ([3]; T = 1, average of 5 donors): 376.7% | Fold change, BFU-E, methylcellulose culture, MEAN ([3]; T = 1, average of 5 donors): 1.99 fold | Fold change, CFU-GEMM, methylcellulose culture, MEAN ([3]; T = 1, average of 5 donors): 2.32 fold | Fold change, CFU-GM, agar culture, MEAN ([3]; T = 1, average of 5 donors): 2.81 fold | Fold change, CFU-GM, methylcellulose culture, MEAN ([3]; T = 1, average of 5 donors): 4.77 fold | % CHG, BFU-E, methylcellulose culture ([3]; T = 3, average of 5 donors): 221.3% | % CHG, CFU-GEMM, methylcellulose culture ([3]; T = 3, average of 5 donors): 332.5% | % CHG, CFU-GM, agar culture ([3]; T = 3, average of 5 donors): 754.1% | % CHG, CFU-GM, methylcellulose culture ([3]; T = 3, average of 5 donors): 1266.5% | % CHG, nucleated cellularity PBL-LD ([3]; T = 3, average of 5 donors): 185.6% | % CHG, nucleated cellularity PBL-US ([3]; T = 3, average of 5 donors): 180.2%
